We go through two compounds from US12497402B2, “IRAK4 degraders and uses thereof” (priority 2021, dated 2025).

By Tmax is commonly meant the time at which the peak concentration occurs. As a reminder, the half-life is the time in which the quantity being followed falls by half. Lower therefore signals rapid decline.

This data set can be described thus: in vivo. To be noted: dog, in vivo; for Potential accumulation after multiple doses / Sex differences in mean Cmax and AUC0-24 values / Tmax / half-life: both, beagle; for Tmax / half-life: po; for half-life: t1/2. The source says:
The vehicle was HPBCD (Kleptose Oral Grade HPB) prepared in reverse osmosis water.
Assessment of toxicity was based on mortality, clinical observations, body weights, food consumption, ophthalmic observations, electrocardiographic (ECG) measurements, and clinical and anatomic pathology. Blood samples were collected for toxicokinetic evaluation.

As to `Cn1c(=O)n([C@@H]2CCC(=O)NC2=O)c2cccc(C#CCOC3CCN(C[C@H]4CC[C@H](n5cc(NC(=O)c6cnn7ccc(N8C[C@H]9C[C@@H]8CO9)nc67)c(C(F)F)n5)CC4)CC3)c21` [Compound C, 5-((1R,4R)-2-oxa-5-azabicyclo[2.2.1]heptan-5-yl)-N-(3-(difluoromethyl)-1-((1r,4R)-4-((4-((3-(1-((R)-2,6-dioxopiperidin-3-yl)-3-methyl-2-oxo-2,3-dihydro-1H-benzo[d]imidazol-4-yl)prop-2-yn-1-yl)oxy)piperidin-1-yl)methyl)cyclohexyl)-1H-pyrazol-4-yl)pyrazolo[1,5-a]pyrimidine-3-carboxamide], the “Potential accumulation after multiple doses” value is reported as at most 1.86 fold; the “Sex differences in mean Cmax and AUC0-24 values” is “less than 2 fold”; the “Dose proportionality of increases in mean Cmax and AUC0-24” value is “less than dose proportional”. Where the note is “5 mg/kg, Tmax”, the Tmax amounted to 4 h. The same compound had a half-life (5 mg/kg) of 7.65 h. Also, the Tmax (30 mg/kg, Tmax) is 4 h. Moreover, the Tmax (60 mg/kg, Tmax) turned out to be 4 h. In addition, the Tmax (60 mg/kg, median Tmax) is 4 h. The Tmax (100 mg/kg, Tmax) amounted to 6 h. In addition, the Tmax (200 mg/kg, Tmax) was determined as 4 h. The Tmax (median Tmax) amounted to 6 h.

Consider `Cn1c(=O)n([C@H]2CCC(=O)NC2=O)c2cccc(C#CCOC3CCN(C[C@H]4CC[C@H](n5cc(NC(=O)c6cnn7ccc(N8C[C@H]9C[C@@H]8CO9)nc67)c(C(F)F)n5)CC4)CC3)c21` [Compound B, 5-((1R,4R)-2-oxa-5-azabicyclo[2.2.1]heptan-5-yl)-N-(3-(difluoromethyl)-1-((1r,4R)-4-((4-((3-(1-((S)-2,6-dioxopiperidin-3-yl)-3-methyl-2-oxo-2,3-dihydro-1H-benzo[d]imidazol-4-yl)prop-2-yn-1-yl)oxy)piperidin-1-yl)methyl)cyclohexyl)-1H-pyrazol-4-yl)pyrazolo[1,5-a]pyrimidine-3-carboxamide], for which the “Potential accumulation after multiple doses” value is given as at most 1.98 fold; the “Sex differences in mean Cmax and AUC0-24 values” is “less than 2 fold”; the “Dose proportionality of increases in mean Cmax and AUC0-24” value is “less than dose proportional”. Moreover, for the setting “5 mg/kg, Tmax”, the Tmax is 4 h. The same compound gave a half-life (5 mg/kg) of 7.6 h. Also, under “30 mg/kg, Tmax”, the Tmax stood at 4 h. The time of peak concentration (Tmax) (60 mg/kg, Tmax) came out at 4 h. In addition, the Tmax (60 mg/kg/day, median Tmax) was 4 h. The Tmax (100 mg/kg, Tmax) was determined as 6 h. Besides, under “median Tmax”, the Tmax lay within 6 to 9 h.
